Laboratory results published in US20240252488A1 (KOREA RESEARCH INSTITUTE OF CHEMICAL TECHNOLOGY, priority 2020, published 2024).
Structures can show the parent of a compound that is named as a salt.

Key:
FADD−/− Jurkat cells = experiment: Necroptosis inhibition assay, TNF-α-induced necroptosis (CellTiter-Glo 2.0); assay type: cell-based, human; conditions: TNF-α 15 ng/mL; for Necroptosis inhibition assay (Rescue %) 1 μM: compound 1 μM; for Necroptosis inhibition assay (Rescue %) 10 μM: compound 10 μM
Experimental: Necroptosis Inhibition Assay
Necroptosis inhibition was evaluated by the following method.
80 μL of FADD gene-defective human T lymphocyte cells (FADD−/− Jurkat cells) were equally distributed into each well at 5.0×10^5 cells/mL in a white 96-well plate with a transparent bottom. 20 μL of the medium containing test compound was treated in each well so that the final concentration of the compound was 0.1, 1, and 10 μM, and reacted at room temperature for 30 minutes. After the 30-minute reaction was over, TNF (tumor necrosis factor)-α was treated in the corresponding well so that the final concentration of TNF-α was 15 ng/mL in order to induce necroptosis. It was cultured in a 5% CO2, 37° C. incubator for 20 to 24 hours.
After incubation, the 96-well plate was left at room temperature for 30 minutes. After 30 minutes, Promega's CellTiter-Glo 2.0 reagent was diluted 1:3 with PBS and 100 μL of the diluted solution was added to each well to confirm cell viability by measuring the amount of ATP. After the treatment, the plate was shielded from light and incubated at room temperature for 2 minutes with orbital shaking, and then left at room temperature for 10 minutes without shaking. After measuring the luminescence at 0.5 seconds per well using a plate scanner, the cytotoxicity and necroptosis inhibition rate for the compound were calculated using the measured values.

MLKL = target: T1, MLKL (Homo sapiens, UniProt Q8NB16); experiment: Measurement of binding affinity with MLKL receptor (competitive binding assay, Kd); parameters: made in house; host or cells: HEK 293 cell line (T7 phage in E. coli BL21-derived host is also described)
T1 sequence (Q8NB16 1-471): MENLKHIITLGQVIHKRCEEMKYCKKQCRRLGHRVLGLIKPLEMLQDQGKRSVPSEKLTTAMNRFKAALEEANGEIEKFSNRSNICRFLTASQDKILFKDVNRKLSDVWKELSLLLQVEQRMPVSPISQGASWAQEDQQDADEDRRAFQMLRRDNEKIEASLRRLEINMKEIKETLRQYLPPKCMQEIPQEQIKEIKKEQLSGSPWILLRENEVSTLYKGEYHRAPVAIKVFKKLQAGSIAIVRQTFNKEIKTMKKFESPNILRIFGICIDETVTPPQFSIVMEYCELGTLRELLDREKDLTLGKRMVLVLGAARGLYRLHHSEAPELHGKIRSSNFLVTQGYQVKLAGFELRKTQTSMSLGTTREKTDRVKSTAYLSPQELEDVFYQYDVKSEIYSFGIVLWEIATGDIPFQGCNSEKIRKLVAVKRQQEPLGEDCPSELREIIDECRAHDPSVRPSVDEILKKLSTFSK
Experimental: Measurement of Binding Affinity with MLKL Receptor (Competitive Binding Assay)
The binding affinity was evaluated by measuring the Kd value in the following method.
To prepare kinase-tagged T7 phage strains in an E. coli host derived from the BL21 strain, E. coli were grown to log-phase and infected with T7 phage and incubated with shaking at 32° C. until lysis. The lysates were centrifuged and filtered to remove cell debris. For kinase production, it was expressed in human embryonic kidney cell line (HEK 293 cell line), and subsequently tagged with DNA for qPCR detection.
The liganded beads were blocked with excess biotin and washed with blocking buffer (SeaBlock (Pierce), 1% BSA, 0.05% Tween 20, 1 mM DTT) to remove unbound ligand and to reduce non-specific binding. […] Test compounds were prepared as 111× stocks in 100% DMSO.
The compounds were then diluted directly into the assays such that the final concentration of DMSO was 0.9%. All reactions performed in polypropylene 384-well plate. Each was a final volume of 0.02 ml. […] The kinase concentration in the eluates was measured by qPCR.

SMILES | Kd (MLKL) [nM] | Necroptosis inhibition assay (Rescue %) 1 μM (FADD−/− Jurkat cells) [%] | Necroptosis inhibition assay (Rescue %) 10 μM (FADD−/− Jurkat cells) [%]
Nc1ncc(C2=CCN(C(=O)CCCCCNC(=O)CNc3cccc4c3C(=O)N(C3CCC(=O)NC3=O)C4=O)CC2)cc1C(=O)O[C@@H](C(=O)Nc1ccc(F)cc1)c1ccccc1 (stereo partly drawn) [TDH-079, (R)-2-((4-fluorophenyl)amino)-2-oxo-1-phenylethyl 6-amino-1′-(6-(2-((2-(2,6-dioxopiperidin-3-yl)-1,3-dioxoisoindolin-4-yl)amino)acetamido)hexanoyl)-1′,2′,3′,6′-tetrahydro-[3,4′-bipyridine]-5-carboxylate] | 45 | – | 0.94
Nc1ncc(C2=CCN(C(=O)CCCCCNc3ccc4c(c3)C(=O)N(C3CCC(=O)NC3=O)C4=O)CC2)cc1C(=O)O[C@@H](C(=O)Nc1ccc(F)cc1)c1ccccc1 (stereo partly drawn) [TDH-075, (R)-2-((4-fluorophenyl)amino)-2-oxo-1-phenylethyl 6-amino-1′-(6-((2-(2,6-dioxopiperidin-3-yl)-1,3-dioxoisoindolin-5-yl)amino)hexanoyl)-1′,2′,3′,6′-tetrahydro-[3,4′-bipyridine]-5-carboxylate] | 140 | 10.02 | 9.05
Nc1ncc(-c2cnn(C3CCN(CCOCCOCCNC(=O)C4CN(c5ccc6c(c5)C(=O)N(C5CCC(=O)NC5=O)C6=O)C4)CC3)c2)nc1C(=O)O[C@@H](C(=O)Nc1ccc(F)cc1)c1ccccc1 (stereo partly drawn) [TDH-116, (R)-2-((4-fluorophenyl)amino)-2-oxo-1-phenylethyl 3-amino-6-(1-(1-(2-(2-(2-(1-(2-(2,6-dioxopiperidin-3-yl)-1,3-dioxoisoindolin-5-yl)azetidine-3-carboxamido)ethoxy)ethoxy)ethyl)piperidin-4-yl)-1H-pyrazol-4-yl)pyrazine-2-carboxylate] | 2 | 16.8 | 42.8
CN(C)c1ccc(NC(=O)[C@H](OC(=O)c2nc(-c3cnn(C4CCNCC4)c3)cnc2N)c2ccccc2)cc1 [TDH-470, (R)-2-((4-(dimethylamino)phenyl)amino)-2-oxo-1-phenylethyl 3-amino-6-(1-(piperidin-4-yl)-1H-pyrazol-4-yl)pyrazine-2-carboxylate hydrochloride] | 3.8 | – | –
Nc1ncc(C2=CCN(C(=O)COCCOCCNC(=O)C3CN(c4ccc5c(c4)C(=O)N(C4CCC(=O)NC4=O)C5=O)C3)CC2)cc1C(=O)O[C@@H](C(=O)Nc1ccc(F)cc1)c1ccccc1 (stereo partly drawn) [TDH-087, (R)-2-((4-fluorophenyl)amino)-2-oxo-1-phenylethyl 6-amino-1′-(2-(2-(2-(1-(2-(2,6-dioxopiperidin-3-yl)-1,3-dioxoisoindolin-5-yl)azetidine-3-carboxamido)ethoxy)ethoxy)acetyl)-1′,2′,3′,6′-tetrahydro-[3,4′-bipyridine]-5-carboxylate] | 38 | – | –
Cc1ccc([C@@H](OC(=O)c2nc(-c3cnn(C4CCNCC4)c3)cnc2N)C(=O)Nc2ccc(F)cc2)cc1 [TDH-320, (R)-2-((4-fluorophenyl)amino)-2-oxo-1-(p-tolyl)ethyl 3-amino-6-(1-(piperidin-4-yl)-1H-pyrazol-4-yl)pyrazine-2-carboxylate hydrochloride] | 1.7 | – | –
Nc1ncc(-c2cnn(C3CCNCC3)c2)nc1C(=O)O[C@@H](C(=O)Nc1ccc(C(F)(F)F)cc1)c1ccccc1 [TDH-459, (R)-2-oxo-1-phenyl-2-((4-(trifluoromethyl)phenyl)amino)ethyl 3-amino-6-(1-(piperidin-4-yl)-1H-pyrazol-4-yl)pyrazine-2-carboxylate hydrochloride] | 6.5 | – | –
Nc1ncc(C2=CCN(C(=O)COCCOCCNc3ccc4c(c3)C(=O)N(C3CCC(=O)NC3=O)C4=O)CC2)cc1C(=O)O[C@@H](C(=O)Nc1ccc(F)cc1)c1ccccc1 (stereo partly drawn) [TDH-083, (R)-2-((4-fluorophenyl)amino)-2-oxo-1-phenylethyl 6-amino-1′-(2-(2-(2-((2-(2,6-dioxopiperidin-3-yl)-1,3-dioxoisoindolin-5-yl)amino)ethoxy)ethoxy)acetyl)-1′,2′,3′,6′-tetrahydro-[3,4′-bipyridine]-5-carboxylate] | 84 | – | –
Nc1ncc(-c2cnn(C3CCN(CCCCCCNc4cccc5c4C(=O)N(C4CCC(=O)NC4=O)C5=O)CC3)c2)nc1C(=O)O[C@@H](C(=O)Nc1ccc(F)cc1)c1ccccc1 (stereo partly drawn) [TDH-119, (R)-2-((4-fluorophenyl)amino)-2-oxo-1-phenylethyl 3-amino-6-(1-(1-(6-((2-(2,6-dioxopiperidin-3-yl)-1,3-dioxoisoindolin-4-yl)amino)hexyl)piperidin-4-yl)-1H-pyrazol-4-yl)pyrazine-2-carboxylate] | 7.9 | – | –

More lines, in order of falling Kd (MLKL), values ahead:

Kd (MLKL) [nM] | SMILES | Necroptosis inhibition assay (Rescue %) 1 μM (FADD−/− Jurkat cells) [%] | Necroptosis inhibition assay (Rescue %) 10 μM (FADD−/− Jurkat cells) [%]
91 | Nc1ncc(-c2cnn(C3CCN(CCOCCOCCNc4cccc5c4C(=O)N(C4CCC(=O)NC4=O)C5=O)CC3)c2)nc1C(=O)N[C@@H](C(=O)Nc1ccc(F)cc1)c1ccccc1 (stereo partly drawn) [TDH-215, 3-amino-6-(1-(1-(2-(2-(2-((2-(2,6-dioxopiperidin-3-yl)-1,3-dioxoisoindolin-4-yl)amino)ethoxy)ethoxy)ethyl)piperidin-4-yl)-1H-pyrazol-4-yl)-N-((R)-2-((4-fluorophenyl)amino)-2-oxo-1-phenylethyl)pyrazine-2-carboxamide] | 15.33 | 21.83
70 | Nc1ncc(C2=CCN(C(=O)COCCOCCNc3cccc4c3C(=O)N(C3CCC(=O)NC3=O)C4=O)CC2)cc1C(=O)O[C@@H](C(=O)Nc1ccc(F)cc1)c1ccccc1 (stereo partly drawn) [TDH-082, (R)-2-((4-fluorophenyl)amino)-2-oxo-1-phenylethyl 6-amino-1′-(2-(2-(2-((2-(2,6-dioxopiperidin-3-yl)-1,3-dioxoisoindolin-4-yl)amino)ethoxy)ethoxy)acetyl)-1′,2′,3′,6′-tetrahydro-[3,4′-bipyridine]-5-carboxylate] | – | –
11 | Cl.Nc1ncc(-c2cnn(C3CCNCC3)c2)nc1C(=O)N[C@@H](C(=O)Nc1ccc(F)cc1)c1ccccc1 [TDH-099, (R)-3-amino-N-(2-((4-fluorophenyl)amino)-2-oxo-1-phenylethyl)-6-(1-(piperidin-4-yl)-1H-pyrazol-4-yl)pyrazine-2-carboxamide hydrochloride] | 18.18 | –
6.1 | Nc1ncc(-c2cnn(C3CCN(C(=O)COCCOCCNC(=O)C4CN(c5cccc6c5C(=O)N(C5CCC(=O)NC5=O)C6=O)C4)CC3)c2)nc1C(=O)O[C@@H](C(=O)Nc1ccc(F)cc1)c1ccccc1 (stereo partly drawn) [TDH-192, (R)-2-((4-fluorophenyl)amino)-2-oxo-1-phenylethyl 3-amino-6-(1-(1-(2-(2-(2-(1-(2-(2,6-dioxopiperidin-3-yl)-1,3-dioxoisoindolin-4-yl)azetidine-3-carboxamido)ethoxy)ethoxy)acetyl)piperidin-4-yl)-1H-pyrazol-4-yl)pyrazine-2-carboxylate] | 50.37 | 45.32
5.6 | Nc1ncc(-c2cnn(C3CCNCC3)c2)nc1C(=O)O[C@@H](C(=O)Nc1ccncc1)c1ccccc1 [TDH-479, (R)-2-oxo-1-phenyl-2-(pyridin-4-ylamino)ethyl 3-amino-6-(1-(piperidin-4-yl)-1H-pyrazol-4-yl)pyrazine-2-carboxylate--2,2,2-trifluoroacetaldehyde] | – | –
1.1 | CC(=O)N1CCC(n2cc(-c3cnc(N)c(C(=O)O[C@@H](C(=O)Nc4ccc(F)cc4)c4ccc(Cl)cc4)n3)cn2)CC1 [TDH-325, (R)-1-(4-chlorophenyl)-2-((4-fluorophenyl)amino)-2-oxoethyl 6-(1-(1-acetylpiperidin-4-yl)-1H-pyrazol-4-yl)-3-aminopyrazine-2-carboxylate] | – | –
0.73 | CC(=O)N1CCC(n2cc(-c3cnc(N)c(C(=O)O[C@@H](C(=O)Nc4ccc(F)cc4)c4ccccc4)n3)cn2)CC1 [TDH-097, (R)-2-((4-fluorophenyl)amino)-2-oxo-1-phenylethyl 6-(1-(1-acetylpiperidin-4-yl)-1H-pyrazol-4-yl)-3-aminopyrazine-2-carboxylate] | – | –
